{"source": "patent US20230201262A1", "about": "“MYELOMA-SPECIFIC IMMUNITY REQUIRES THE DIFFERENTIATION OF STEM-LIKE MEMORY T CELLS IN THE BONE MARROW” (Fred Hutchinson Cancer Center, priority 2021, published 2023)", "key": {"[1]": {"tested_on": "BCR-ABL-NUP98-HOXA9 leukemia", "method": "Recipients were untreated (haploBMT) or administered PT-Cy (50 mg/kg) on D+3 and D+4 (PT-Cy) with or without decoy-resistant IL-18 (PT-Cy + DR-18; 8 µg twice weekly from D+7 to week 5) or CD137 agonist antibody (PT-Cy + αCD137; 100 µg twice weekly from D+7 to week 5).\nIt was next sought to explore the combination of agonist immunotherapy with PT-Cy in a model of haploidentical transplantation (haploBMT), a setting where PT-Cy is a clinical standard of care. In this model, there is a major genetic mismatch between the recipient and the donor whereby lethal GVHD occurs in the absence of any immunosuppressive interventions.\nTo explore the mechanisms of DR-18-driven GVL in a haploBMT setting, donor cells from a triple reporter mouse (FoxP3-RFP × IL-10-GFP × IFN-γ-YFP) were used to measure in vivo cytokine production without restimulation. Phenotyping was performed in mice with low leukemia burden to minimize the effect of tumor cells on T cell number in the BM.\n(§1) Stem cell transplantation: Recipient mice were intravenously injected with Vk12653, which originated from Vk*MYC transgenic mice, 2 weeks before BMT (1 × 10^6 CD138^+CD19neg cells; MM-bearing mice) or with an MLL-AF9-driven AML (MLL-AF9; 0.1 × 10^6 GFP^+) or BCR-ABL-NUP98-HOXA9 (1.0 × 10^6 GFP^+) on D0 (AML-bearing mice). Recipients were transplanted with BM and T cell grafts (doses detailed in the figure legends) administered via tail vein injection the day after lethal irradiation (1000 cGy for C57B⅙ and 1100 cGy for B62DF1, 137Cs source). Every 2 weeks, serum samples were collected from MMbearing recipients, and M-band was quantified using a Sebia Hydrasys serum protein electrophoresis system ([…] 2 Scan). Leukemia cell number in blood was calculated weekly using flow cytometry to quantify GFP^+ cells in blood. Recipients were monitored daily, up to 120 days after BMT, and euthanized when hindlimb paralysis occurred or clinical scores reached ≥6. In competing risk analyses, deaths were attributed to myeloma if the M-band was above 0.28, a defined relapse threshold. In the leukemia models, leukemic death was defined by a white blood cell count above 50 × 10^6/ml or a GFP^+ leukemia frequency above 50% in blood or BM. For some experiments, mice were treated with 100 µg of anti-TIGIT monoclonal antibody (mAb; 4B1, Bristol Myers Squibb) or mouse IgG2a (anti-KLH) twice a week for 4 weeks from D+14 postalloBMT. For other experiments, mice were treated with 100 µg of Fc-dead anti-TIGIT mAb (D265A, Bristol Myers Squibb) or mouse IgG1 (anti-KLH.1) twice a week for 6 weeks from D+21 postalloBMT. Cyclophosphamide (Fisher Scientific; 99.5%, MP Biomedicals) was intraperitoneally administered at 50 mg/kg on D+3 and D+4 after alloBMT (PT-Cy). […] DR-18 was supplied by Simcha Therapeutics (New Haven, CT)."}, "Vk*MYC myeloma": {"tested_on": "Vk*MYC myeloma", "type": "in vivo", "description": "To achieve this, a system of allogeneic BMT was developed where C57B⅙ recipients are transplanted with BM and T cell grafts from minor MHC (major histocompatibility complex)-mismatched C3H.SW donors (alloBMT) or syngeneic C57B⅙ donors (synBMT). A green fluorescent protein (GFP)-expressing MLL-AF9-driven leukemia that allows for monitoring of tumor cells in peripheral blood and Vk*MYC myeloma that secretes immunoglobulin G (IgG), which can be monitored by serum protein electrophoresis as an M-band (albumin/gamma ratio) that is a hallmark of clinical disease, were utilized.\nas §1\n(§2) Cell preparation for flow cytometry: Recipient mice were euthanized 2 to 8 weeks after transplant, and cells from BM or blood were harvested. For BM aspirates, mice were anesthetized and treated with a local analgesic (0.5% lidocaine) followed by injection of 30 µl of phosphate-buffered saline (PBS) into the femur to allow up to 10 µl of marrow to be aspirated for fluorescence- activated cell sorting (FACS) analysis. For surface marker phenotyping, isolated cells were incubated with Fc-block before staining with fluorescently tagged antibodies (listed in Table 1), on ice for 30 min. For intracellular staining, cells were surface labeled, fixed, and permeabilized (eBioscience, Foxp3 Transcription Factor Staining Buffer Kit) before intracellular staining at room temperature for 60 min. To measure cytokine production, cells were stimulated for 4 hours at 37° C. with PMA (500 ng/ml) and ionomycin (50 ng/ml; Sigma-Aldrich) with brefeldin A (BioLegend). All samples were acquired on a BD LSR Fortessa (BD Biosciences) or BD FACSymphony A3 (BD Biosciences) and analyzed using FlowJo software (v10). t-SNE analysis was performed using the FlowJo plugin with default settings on a concatenated sample with 3000 CD8 T cells per mouse. FlowSOM analysis was performed with 3000 to 4000 CD8 or CD4 T cells per mouse concatenated after downsampling.\nStatistical analysis: Data are presented as means ± SEM, and P < 0.05 was considered significant. Survival curves were plotted using Kaplan-Meier estimates and compared by log-rank (Mantel-Cox) test."}, "T cells in the BM": {"tested_on": "T cells in the BM", "method": "It was next investigated whether it was possible to eliminate highly activated, alloreactive T cells to preserve T cell subsets that could be safely harnessed to improve GVT responses in the BM after alloBMT. […] T cell phenotypes in the BM were first assessed 14 days after transplantation in MM-free mice to generate a dataset that could be broadly interpreted independent of specific tumor induced phenotypes. Single-cell sequencing was performed on sorted T cells from BM with the 10x Genomics Multiome platform to measure concurrent changes in gene expression (RNA sequencing) and chromatin accessibility (ATAC (assay for transposase-accessible chromatin) sequencing).\nas §2\nSingle-cell RNA/ATAC sequencing: Naive C57B⅙ mice were transplanted with C3H.SW grafts and were untreated (alloBMT) or treated with PT-Cy (50 mg/kg) on D+3 and D+4 (PT-Cy). BM was harvested from femurs (four mice pooled per group) at D+14 after alloBMT, and T cells were sort-purified (CD90.2^+CD4^+ and CD90.2^+CD8^+) before nuclei preparation according to the 10x Genomics Multiome protocol. Nuclei (also referred to as cells herein) were captured and libraries were generated according to the manufacturer’s specifications. Libraries were sequenced using Illumina NovaSeq 6000 targeting a depth of 25,000 reads per cell per library.\nSingle-cell RNA/ATAC analysis: Reads were demultiplexed and processed using cellranger-arc v1.0.1 aligning reads to GENCODE vM23/Ensembl98. Peaks were called from each sample’s fragment file (cellranger output) using MACS2 using the parameters “--nomodel --extsize 200 --shift -100.” Quantification of reads in MACS2 peaks were calculated and integrated with cellranger RNA output using Signac. Cells meeting the following criteria (calculated using Signac) were retained for downstream analysis: percent mitochondrial RNA reads <10%; 3 > log10(ATAC counts) < 4.5; 3 > log10(RNA/UMI counts) < 4.5; fraction of reads in peaks >40%; transcription start site (TSS) percentile >75%. RNA/unique molecular identifier (UMI) counts were subject to a variance-stabilized normalization procedure using Seurat’s “glmGamPoi” function before dimensionality reduction using principal components analysis (PCA)."}, "[2]": {"details": "50 mg/kg D+3 and D+4, vs untreated haploBMT"}, "[3]": {"details": "21 days after transplantation, vs untreated haploBMT"}, "[4]": {"details": "21 days, PT-Cy vs untreated haploBMT"}, "[5]": {"details": "50 mg/kg D+3 and D+4, vs untreated recipients"}, "[6]": {"details": "50 mg/kg D+3 and D+4, D+14, multiome sequencing, vs untreated alloBMT"}}, "note": "Entries after “also recorded” stand apart in the source; their conditions may differ.", "data": [{"smiles": "O=P1(N(CCCl)CCCl)NCCCO1", "note": "(stereo not shown) [PT-Cy, cyclophosphamide]", "values": [{"measurement": "incidence of lethal GVHD", "setting": "[1]; [2]", "value": "reduced the incidence of lethal GVHD"}, {"measurement": "relapse-related mortality", "setting": "[1]; [2]", "value": "increased relapse-related mortality"}, {"measurement": "CD8+ T cell numbers in the BM", "setting": "[1]; [3]", "value": "reduced"}, {"measurement": "NK cells in the BM", "setting": "[1]; [3]", "value": "increased"}, {"measurement": "CD4+ IFN-γ production", "setting": "[1]; [4]", "value": "unaffected"}, {"measurement": "frequency of IFN-γ+ CD8+ T cells", "setting": "[1]; [4]", "value": "minimally decreased"}, {"measurement": "overall survival", "setting": "[1]; PT-Cy vs untreated haploBMT", "value": "no difference in overall survival"}, {"measurement": "overall survival", "setting": "Vk*MYC myeloma; 50 mg/kg D+3 and D+4, vs untreated alloBMT", "value": "did not significantly reduce overall survival"}, {"measurement": "myeloma burden (M-band) at 4 weeks after alloBMT", "setting": "Vk*MYC myeloma; [5]", "value": "early myeloma cytoreduction with reduced M-bands"}, {"measurement": "myeloma progression (M-band) 8 weeks after alloBMT", "setting": "Vk*MYC myeloma; [5]", "value": "subsequent increase in myeloma progression"}, {"measurement": "CD8+ T cell phenotype in BM, MM-bearing recipients", "setting": "Vk*MYC myeloma; 7 weeks after transplant", "value": "most CD8^+ T cells were DNAM-1-TIGIT^+ with high expression of TOX and TIM-3"}, {"measurement": "total numbers of CD4+ and CD8+ T cells in BM", "setting": "Vk*MYC myeloma; 7 weeks after transplant", "value": "reduction in total numbers of CD4^+ and CD8^+ T cells"}, {"measurement": "total T cell numbers (CD8 and CD4) in BM", "setting": "Vk*MYC myeloma; D+14 (MM-free) and D+21 (MM-bearing) after alloBMT", "value": "concurrently reduced; also recorded: reduces the total number of CD8 and CD4 T cells"}, {"measurement": "chromatin accessibility (gene activity scores) of Il18r1, Il2ra, Il7r in CD8+ and CD4+ T cells", "setting": "T cells in the BM; 50 mg/kg D+3 and D+4, D+14, ATAC", "value": "increased gene activity scores"}, {"measurement": "gene signature expression in BM CD8+ T cells", "setting": "T cells in the BM; [6]", "value": "higher expression of stem-like memory gene signatures"}, {"measurement": "gene signature in BM CD4+ T cells", "setting": "T cells in the BM; [6]", "value": "largely enriched for a TSCM signature"}, {"measurement": "CD8+ T cell phenotype in BM, MM-free recipients", "setting": "T cells in the BM; 7 weeks after transplant", "value": "most CD8^+ T cells were DNAM-1^+TIGIT^- and did not express TOX or TIM-3"}, {"measurement": "CD8+ central memory and terminal effector T cells, MM-free recipients", "setting": "T cells in the BM; 7 weeks after transplant", "value": "increase in CD8^+ central memory (TCM; CD44^+CD62L^+) and a decrease in terminal effector (TEFF; CD44^-CD62L^-) T cells"}, {"measurement": "frequency of alloreactive, exhausted T cells in the BM", "setting": "T cells in the BM; D+14", "value": "reduced the frequency of alloreactive, exhausted T cells"}, {"measurement": "granzyme B production by CD8+ T cells", "setting": "T cells in the BM; D+14, RNA and protein expression", "value": "did not abrogate granzyme B production"}, {"measurement": "CD4+ T cell exhaustion signature in FoxP3- conventional CD4+ T cells", "setting": "T cells in the BM; D+14, flow cytometry", "value": "largely indistinguishable from synBMT recipients"}, {"measurement": "DNAM-1, TIGIT, PD-1 and TOX expression on BM CD8+ T cells", "setting": "T cells in the BM; D+14, flow cytometry, vs alloBMT without PT-Cy", "value": "significantly increased DNAM-1 and reduced TIGIT, PD-1, and TOX expression"}]}]}
